Tests used:
TLR2/6 = target: T1, TLR2/6 (Mus musculus, UniProt Q9EPW9+Q9QUN7); assay: TLR2/6-mediated TNF-α secretion (FSL-1), ELISA; assay type: cell-based, murine; conditions: RAW 264.7, 10 or 20 μM
T1 construct: endogenous in cells; host or cells: RAW 264.7
Description: (§1) Agonists specific to TLR1/TLR2 (Pam3CSK4), TLR2/TLR6 (FSL-1), TLR3 (Poly I:C), TLR7 (imiquimod), and TLR8 (TL8-506) were purchased from InvivoGen Ltd. (Hong-Kong, China), and a TLR4-specific agonist (LPS from E. coli O111:B4) was purchased from Sigma-Aldrich, Inc. For TLR9-specific stimulation, class C CpG-ODN (ODN2395, 5′-TCGTCGTTTTCGGCGCGCGCCG-3′) having full phosphorothioate backbone modification was synthesized (Bioneer, Inc., Daejeon, Korea). All TLR agonists were dissolved in deionized water and applied to a culture media for TLR activation. The cells were treated with test compounds or a control medium for 1 hour, and then stimulated with a TLR agonist for 4 hours, or 24 hours in the case of poly(I:C), and the cytokine secretion was monitored.
(§2) RAW 264.7 or differentiated THP-1 cell lines were seeded onto a 96-well culture plate at a density of 2×10^4 cells/well. The cells were treated with test compounds for 1 hour followed by the stimulation with TLR agonists for 4 hours. The supernatant was transferred to pre-coated assay plates, and the secretion levels of mouse and human TNF-α were measured by respective ELISA kits (Invitrogen, Carlsbad, CA, USA). […] Absorbance was measured by a microplate reader spectrophotometer (Molecular Devices, Inc., San Jose, CA, USA), and data was interpolated from a standard curve using SoftMax Pro 5.3 software (Molecular Devices, Inc.). […]

TLR3 = target: T2, TLR3 (Mus musculus, UniProt Q99MB1); assay: TLR3-mediated TNF-α secretion (poly I:C), ELISA; assay type: cell-based, murine; conditions: RAW 264.7, 10 or 20 μM, poly I:C 24 hours
T2 construct: endogenous in cells; host or cells: RAW 264.7
T2 sequence (Q99MB1 26-905): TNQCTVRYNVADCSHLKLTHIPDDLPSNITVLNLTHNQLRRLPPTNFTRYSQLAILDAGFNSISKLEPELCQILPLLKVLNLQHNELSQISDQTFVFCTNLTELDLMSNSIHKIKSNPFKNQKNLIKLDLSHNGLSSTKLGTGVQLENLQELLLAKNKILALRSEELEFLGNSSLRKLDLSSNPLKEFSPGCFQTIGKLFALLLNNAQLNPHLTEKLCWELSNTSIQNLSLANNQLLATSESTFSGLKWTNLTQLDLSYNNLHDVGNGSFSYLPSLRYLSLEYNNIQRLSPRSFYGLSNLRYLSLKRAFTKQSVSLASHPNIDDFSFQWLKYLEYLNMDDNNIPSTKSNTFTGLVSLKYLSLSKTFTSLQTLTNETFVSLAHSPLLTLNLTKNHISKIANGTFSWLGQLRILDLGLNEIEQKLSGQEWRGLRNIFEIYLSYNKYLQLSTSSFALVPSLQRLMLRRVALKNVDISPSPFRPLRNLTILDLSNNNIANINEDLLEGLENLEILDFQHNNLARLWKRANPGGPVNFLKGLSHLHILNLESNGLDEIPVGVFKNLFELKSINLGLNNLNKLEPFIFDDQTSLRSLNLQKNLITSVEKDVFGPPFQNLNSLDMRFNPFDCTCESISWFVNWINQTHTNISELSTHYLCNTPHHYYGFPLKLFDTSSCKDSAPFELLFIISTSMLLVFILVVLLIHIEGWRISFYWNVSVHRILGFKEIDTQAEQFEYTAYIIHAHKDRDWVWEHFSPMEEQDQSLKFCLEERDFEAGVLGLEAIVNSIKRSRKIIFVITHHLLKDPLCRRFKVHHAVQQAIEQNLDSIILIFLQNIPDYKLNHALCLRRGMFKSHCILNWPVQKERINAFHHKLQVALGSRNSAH
Description: as §1, §2

T1 sequence (Q9QUN7 25-784): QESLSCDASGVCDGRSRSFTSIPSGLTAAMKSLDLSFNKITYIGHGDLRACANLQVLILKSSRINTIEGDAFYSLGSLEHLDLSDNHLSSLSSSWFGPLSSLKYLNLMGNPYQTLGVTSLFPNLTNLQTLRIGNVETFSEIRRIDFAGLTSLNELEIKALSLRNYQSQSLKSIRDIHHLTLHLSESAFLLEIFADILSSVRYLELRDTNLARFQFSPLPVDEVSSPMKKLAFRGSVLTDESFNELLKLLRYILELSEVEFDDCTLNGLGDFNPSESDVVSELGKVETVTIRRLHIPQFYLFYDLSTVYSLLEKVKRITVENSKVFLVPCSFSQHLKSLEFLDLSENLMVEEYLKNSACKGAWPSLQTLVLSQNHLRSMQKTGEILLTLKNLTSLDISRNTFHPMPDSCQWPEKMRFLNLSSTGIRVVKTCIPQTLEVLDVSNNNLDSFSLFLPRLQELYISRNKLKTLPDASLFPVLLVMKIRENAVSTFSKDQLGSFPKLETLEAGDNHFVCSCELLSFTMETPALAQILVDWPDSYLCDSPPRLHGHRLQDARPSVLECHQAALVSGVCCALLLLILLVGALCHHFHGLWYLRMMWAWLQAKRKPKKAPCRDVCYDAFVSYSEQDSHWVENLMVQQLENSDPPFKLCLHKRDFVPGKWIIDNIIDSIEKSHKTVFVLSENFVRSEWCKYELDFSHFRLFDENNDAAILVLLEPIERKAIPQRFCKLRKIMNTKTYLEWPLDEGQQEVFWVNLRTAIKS
T1 sequence (Q9EPW9 28-795): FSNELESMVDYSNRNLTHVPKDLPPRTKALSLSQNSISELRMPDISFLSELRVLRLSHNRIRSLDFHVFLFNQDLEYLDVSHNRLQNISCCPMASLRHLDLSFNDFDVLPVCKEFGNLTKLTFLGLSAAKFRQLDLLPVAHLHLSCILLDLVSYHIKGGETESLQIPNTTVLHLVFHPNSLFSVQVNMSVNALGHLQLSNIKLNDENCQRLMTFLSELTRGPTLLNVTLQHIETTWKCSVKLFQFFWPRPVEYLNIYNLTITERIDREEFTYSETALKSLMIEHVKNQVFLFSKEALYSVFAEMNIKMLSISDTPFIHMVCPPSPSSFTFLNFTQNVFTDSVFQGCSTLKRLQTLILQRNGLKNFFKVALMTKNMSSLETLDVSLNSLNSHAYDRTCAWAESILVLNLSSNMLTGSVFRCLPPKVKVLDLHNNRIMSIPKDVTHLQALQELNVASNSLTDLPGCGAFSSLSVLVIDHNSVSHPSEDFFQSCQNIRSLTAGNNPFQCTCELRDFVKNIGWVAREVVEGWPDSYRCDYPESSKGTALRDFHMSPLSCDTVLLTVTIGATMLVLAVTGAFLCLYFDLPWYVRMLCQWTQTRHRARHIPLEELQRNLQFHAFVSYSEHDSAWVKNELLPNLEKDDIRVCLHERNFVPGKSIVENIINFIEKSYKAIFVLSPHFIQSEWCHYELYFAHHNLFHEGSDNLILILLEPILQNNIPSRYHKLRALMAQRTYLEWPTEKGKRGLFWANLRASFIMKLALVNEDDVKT

SMILES: COc1ccc(CNc2ncc(-c3ccc4c(c3)OCO4)n2C)c(OC)c1 [TIC10-7, 5-(2H-1,3-benzodioxol-5-yl)-N-[(2,4-dimethoxyphenyl)methyl]-1-methyl-1H-imidazol-2-amine]
- effect on TLR2/6-mediated cytokine (TNF-α) production (TLR2/6): no effect
- TLR3-mediated TNF-α secretion (TLR3): moderately reduced

Reference: patent publication US12565475B2, “Small molecule compound inhibiting signal transmission path of TLR7 and TLR9 and use thereof” (AJOU UNIVERSITY INDUSTRY-ACADEMIC COOPERATION FOUNDATION, priority 2019, dated 2026)
